pIC50: −log10 of the molar value. Structures can show the parent of a compound that is named as a salt.
How the values were obtained:
Assay in all cases: In vitro MMP inhibition, IC50 determination (fluorogenic substrate I)
Format in all cases: biochemical
Settings in all cases: substrate (I) 4 μM, room temperature; values not in parenthesis
Human recombinant MMP-13 = molecular target: T1, Human recombinant MMP-13 (Homo sapiens, UniProt P45452)
T1 construct: made in house; host or cells: baculovirus / insect cells
In short: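 Fluorescence at 415 nm (excitation 328 nm) reports Gly-Leu cleavage of 4 μM quenched methoxycoumarin peptide substrate I. Human recombinant MMP-13, activated by trypsin or APMA, was incubated at room temperature with varied inhibitor concentrations in pH 7.5 Tris/NaCl/CaCl2 buffer; IC50 derived from reduced fluorescence.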

Human recombinant MMP-1 = molecular target: T2, Human recombinant MMP-1 (Homo sapiens, UniProt P03956)
T2 construct: made in house; host or cells: MMP-1-transfected HT-1080 cells (spent media)
T2 sequence (P03956 100-469): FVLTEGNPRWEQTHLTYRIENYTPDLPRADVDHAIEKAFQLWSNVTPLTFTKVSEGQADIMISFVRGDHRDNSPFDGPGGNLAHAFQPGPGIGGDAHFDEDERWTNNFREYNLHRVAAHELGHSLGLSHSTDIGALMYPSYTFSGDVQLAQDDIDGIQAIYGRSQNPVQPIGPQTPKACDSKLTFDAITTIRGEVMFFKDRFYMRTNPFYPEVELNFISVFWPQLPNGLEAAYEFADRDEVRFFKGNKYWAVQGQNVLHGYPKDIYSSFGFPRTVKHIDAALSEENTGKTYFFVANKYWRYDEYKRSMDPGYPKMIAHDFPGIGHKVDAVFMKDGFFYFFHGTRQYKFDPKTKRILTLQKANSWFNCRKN
Procedure: (§1) Several hydroxamates and salts thereof were analyzed in in vitro assays to determine their ability to inhibit the MMP cleavage of peptide substrates. Inhibition (Ki) and IC50 constants were calculated from the assayed hydroxamate-MMP interactions.
(§2) Human recombinant MMP-1, MMP-2, MMP-9, MMP-13, and MMP-14 were used in this assay. All enzymes were prepared in Assignee's laboratories following usual laboratory procedures. Protocols for the preparation and use of these enzymes are available in the scientific literature. See, e.g., Enzyme Nomenclature (Academic Press, San Diego, Calif., 1992) (and the citations therein). See also, Frije et al., J. Biol. Chem., 26(24), 16766-73 (1994).
The MMP-1 proenzyme was purified from the spent media of MMP-1-transfected HT-1080 cells provided by Dr. Harold Welgus of Washington University (St. Louis, Mo.). The protein was purified on a zinc chelating column.
(§3) All MMPs were activated using 4-aminophenylmercuric acetate (“APMA”, Sigma Chemical, St. Louis, Mo.) or trypsin. MMP-9 also was activated using human recombinant MMP-3 (purified in Assignee's laboratory following standard cloning and purification techniques).
(§4) Two fluorogenic, methoxycoumarin-containing polypeptide substrates were used in the MMP inhibition assays:
(§5) MCA-ProLeuGlyLeuDpaAlaArgNH2 (I)
(§6) Here, “Dpa” is 3-(2,4-dinitrophenyl)-L-2,3-diaminopropionyl group, and “MCA” is 7-methoxycoumarin-4-yl acetyl. Substrate (I) was purchased from Baychem (Redwood City, Calif.), and substrate II was prepared Assignee's laboratory. Substrate I was used in the IC50 determination assays, while substrate II was used in the Ki determination assays. In the absence of MMP inhibitory activity, either substrate is cleaved at the Gly-Leu peptide bond. This cleavage separates the highly fluorogenic peptide from the 2,4-dinitrophenyl quencher, thus resulting in increase of fluorescent intensity.
(§7) The stock solutions of the assayed hydroxamates (or salts thereof) were prepared in 1% dimethyl sulfoxide (DMSO). These stock solutions were diluted in Buffer A (100 mM Tris-HCl, 100 mM NaCl, 10 mM CaCl2, 0.05% polyoxyethylene 23 lauryl ether, pH 7.5) to obtain solutions with different hydroxamate concentrations, i.e., assay solutions with different concentrations of the assayed MMP inhibitory compound. The experiment controls contained the same amount of Buffer A/DMSO as the assayed sample, but contained no hydroxamate (or salt thereof).
(§8) The assays from which the IC50 determinations were made were performed as follows. The MMPs were activated with either trypsin or APMA (4-aminophenylmercuric acetate, Sigma Chemical, St. Louis, Mo.). The assayed hydroxamate samples were, incubated in Microfluorrm White Plates (Dynatech, Chantilly, VA) and analyzed on a Perkin Elmer L550 plate reader (Norwalk, Conn.). The excitation wavelength was 328 nm, and the emission wavelength—415 nm. All samples (assayed hydroxamates and controls) were incubated in separate plates at room temperature in the presence of 4 μM of MMP substrate (I). As stated in the previous paragraph, samples containing varying concentrations of the same assayed hydroxamate were prepared. Inhibition was measured as a reduction in fluorescent intensity as a function of MMP inhibitor concentration.

Human recombinant MMP-2 = molecular target: T3, Human recombinant MMP-2 (Homo sapiens, UniProt P08253)
T3 construct: made in house; host or cells: MMP-2-transfected p2AHT2 cells
T3 sequence (P08253 110-660): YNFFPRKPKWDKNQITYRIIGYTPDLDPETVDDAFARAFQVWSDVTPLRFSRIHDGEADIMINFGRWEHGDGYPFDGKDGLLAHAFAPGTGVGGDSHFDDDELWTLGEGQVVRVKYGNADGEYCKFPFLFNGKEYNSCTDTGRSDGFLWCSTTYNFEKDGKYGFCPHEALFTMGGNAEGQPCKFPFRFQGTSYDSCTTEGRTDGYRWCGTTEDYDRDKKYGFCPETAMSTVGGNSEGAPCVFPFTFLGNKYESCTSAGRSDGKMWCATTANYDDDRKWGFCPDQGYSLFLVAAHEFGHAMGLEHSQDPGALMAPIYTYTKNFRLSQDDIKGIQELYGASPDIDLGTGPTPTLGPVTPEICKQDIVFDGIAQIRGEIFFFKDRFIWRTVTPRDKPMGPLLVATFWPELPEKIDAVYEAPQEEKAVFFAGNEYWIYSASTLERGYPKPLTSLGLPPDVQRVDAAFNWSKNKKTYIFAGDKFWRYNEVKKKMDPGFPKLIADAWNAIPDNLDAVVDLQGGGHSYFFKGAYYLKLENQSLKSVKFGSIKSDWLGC
In short: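 IC50 was derived from the concentration-dependent fall in fluorescence (ex 328, em 415 nm) on Gly-Leu cleavage of 4 μM MCA/Dpa-quenched substrate I. Assays ran at room temperature in pH 7.5 Tris/NaCl/CaCl2/Brij buffer with MMP-2 activated by trypsin or APMA; inhibitors were diluted from 1% DMSO stocks.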

Human recombinant MMP-9 = molecular target: T4, Human recombinant MMP-9 (Homo sapiens, UniProt P14780)
T4 construct: made in house; host or cells: MMP-9-transfected HT1080 cells (spent media)
T4 sequence (P14780 107-707 limits assumed): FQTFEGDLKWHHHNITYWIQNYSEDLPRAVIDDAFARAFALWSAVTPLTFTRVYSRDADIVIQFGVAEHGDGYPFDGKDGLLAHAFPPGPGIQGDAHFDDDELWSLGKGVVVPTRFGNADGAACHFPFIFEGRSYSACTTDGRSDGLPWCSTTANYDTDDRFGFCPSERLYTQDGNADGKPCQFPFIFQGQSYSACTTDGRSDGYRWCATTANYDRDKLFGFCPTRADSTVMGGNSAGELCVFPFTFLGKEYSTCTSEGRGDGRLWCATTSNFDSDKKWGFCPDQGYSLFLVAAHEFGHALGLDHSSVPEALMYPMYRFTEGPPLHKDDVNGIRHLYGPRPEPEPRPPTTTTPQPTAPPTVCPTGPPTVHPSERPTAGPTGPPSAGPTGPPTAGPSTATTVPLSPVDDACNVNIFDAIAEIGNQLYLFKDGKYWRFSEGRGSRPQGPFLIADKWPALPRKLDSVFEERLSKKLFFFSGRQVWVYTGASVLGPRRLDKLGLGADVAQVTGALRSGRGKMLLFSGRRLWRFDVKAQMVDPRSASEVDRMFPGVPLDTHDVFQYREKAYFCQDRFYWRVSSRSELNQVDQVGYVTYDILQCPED
Procedure: as §1, §2
The MMP-9 proenzyme was purified by gelatin Sepharose chromatography from spent media of MMP-9-transfected HT1080 cells provided by Dr. Howard Welgus of Washington University (St. Louis, Mo.).
as §3, §4, §5, §6, §7, §8

Human recombinant MMP-14 = molecular target: T5, Human recombinant MMP-14 (Homo sapiens, UniProt P50281)
T5 construct: The catalytic domain enzyme was expressed in E. coli inclusion bodies, solubilized in urea; made in house
Procedure: as §1, §2
The MMP-14 full length cDNA was provided by Dr. Gregory Goldberg of Washington University (St. Louis, Mo.). The catalytic domain enzyme was expressed in E. coli inclusion bodies, solubilized in urea, purified on a preparative […] reverse phase HPLC column, and then refolded in the presence of zinc acetate and purified for use.
as §3, §4, §5, §6, §7, §8

| SMILES | pIC50 (Human recombinant MMP-13) | pIC50 (Human recombinant MMP-1) | pIC50 (Human recombinant MMP-2) | pIC50 (Human recombinant MMP-9) | pIC50 (Human recombinant MMP-14) |
| --- | --- | --- | --- | --- | --- |
| COc1ccc(C(=O)NCCCOc2ccc(S(=O)(=O)C3(C(=O)NO)CCN(C4CC4)CC3)cc2)cc1 [Example 18, 1-cyclopropyl-N-hydroxy-4-[[4-[3[(4-methoxybenzoyl)amino]propoxy]phenyl]sulfonyl]-4-piperidinecarboxamide, Monohydrochloride] | 8.74 | < 5.00 | 6.27 | 5.22 | < 5.00 |
| CN(CCCOc1ccc(S(=O)(=O)C2(C(=O)NO)CCOCC2)cc1)C(=O)c1ccc(N(C)C)cc1 [Example 19, 4-[[4-[3-[[4-(dimethylamino)benzoyl]methylamino]propoxy]phenyl]sulfonyl]tetrahydro-N-hydroxy-2H-pyran-4-carboxamide] | 7.82 | < 5.00 | 5.05 | 5.28 | < 5.00 |
| CN(C)c1ccc(NC(=O)CCCCOc2ccc(S(=O)(=O)C3(C(=O)NO)CCOCC3)cc2)cc1 [Example 20, 4-[[4-[[5-[[4-(dimethylamino)-phenyl]amino]-5-oxopentyl]oxy]phenyl]sulfonyl]tetrahydro-N-hydroxy-2H-pyran-4-carboxamide, Monohydrochloride] | 8.74 | < 5.00 | 8.74 | 6.30 | < 5.00 |
| O=C1c2ccccc2C(=O)N1CCCOc1ccc(S(=O)(=O)C2(C(=O)NO)CCOCC2)cc1 [Example 21, 4-[[4-[3-(1,3-dihydro-1,3-dioxo2H-isoindol-2-yl)propoxy]phenyl]sulfonyl]tetrahydro-N-hydroxy-2H-pyran-4-carboxamide] | 8.46 | < 5.00 | 6.35 | < 5.00 | < 5.00 |
| O=C1c2ccccc2CN1CCCOc1ccc(S(=O)(=O)C2(C(=O)NO)CCOCC2)cc1 [Example 22, 4-[[4-[3-(1,3-dihydro-1-oxo-2H-isoindol-2-yl)propoxy]phenyl]sulfonyl]tetrahydro-N-hydroxy-2H-pyran-4-carboxamide] | 8.31 | < 5.00 | 6.00 | < 5.00 | < 5.00 |
| COc1ccc(/C(CCCCOc2ccc(S(=O)(=O)C3(C(=O)NO)CCOCC3)cc2)=N/O)c(OC)c1 [Example 25] | 8.74 | < 5.00 | 6.61 | 5.07 | < 5.00 |
| COc1ccc(C(=O)C(C)CCCOc2ccc(S(=O)(=O)C3(C(=O)NO)CCOCC3)cc2)cc1 (stereo not shown) [Example 26, tetrahydro-N-hydroxy-4-[[4-[[5-(4-methyloxyphenyl)-4-methyl-5-oxopentyl]oxy]phenyl]sulfonyl]-2H-pyran-4-carboxamide] | 8.47 | < 5.00 | 7.28 | 5.35 | < 5.00 |
| COc1ccc(/C(C#N)=C/CCCOc2ccc(S(=O)(=O)C3(C(=O)NO)CCOCC3)cc2)cc1 [Example 27, 4-[[4-[[(4Z)-5-cyano-5-(4-methoxyphenyl)-4-pentenyl]oxy]phenyl]sulfonyl]tetrahydro-N-hydroxy-2H-pyran-4-carboxamide] | 9.70 | < 5.00 | 7.08 | 5.03 | < 5.00 |
| COc1ccc(/C(C)=C/CCCOc2ccc(S(=O)(=O)C3(C(=O)NO)CCOCC3)cc2)cc1 [Example 28, tetrahydro-N-hydroxy-4-[[4[[(4E)-5-(4-methoxyphenyl)-4-hexenyl]oxy]phenyl]sulfonyl]-2H-pyran-4-carboxamide] | 8.15 | < 5.00 | 7.12 | 5.43 | < 5.00 |

Results, then the compound that gave them:

| pIC50 (Human recombinant MMP-13) | pIC50 (Human recombinant MMP-1) | pIC50 (Human recombinant MMP-2) | pIC50 (Human recombinant MMP-9) | pIC50 (Human recombinant MMP-14) | SMILES |
| --- | --- | --- | --- | --- | --- |
| 8.89 | < 5.00 | 7.65 | 6.09 | < 5.00 | COc1ccc(-c2coc(CCCOc3ccc(S(=O)(=O)C4(C(=O)NO)CCOCC4)cc3)n2)cc1 [Example 30, tetrahydro-N-hydroxy-4-[[4-[3-[4-(4-methoxyphenyl)-2-oxazolyl]propoxy]phenyl]sulfonyl]-2Hpyran-4-carboxamide] |
| 9.10 | < 5.00 | 6.66 | 5.39 | < 5.00 | Cc1ccccc1-c1nnc(CCCOc2ccc(S(=O)(=O)C3(C(=O)NO)CCOCC3)cc2)o1 [Example 32, tetrahydro-N-hydroxy-4-[[4-[3-[5-(2-methylphenyl)-1,3,4-oxadiazol-2-yl]propoxy]phenyl]sulfonyl]-2H-pyran-4-carboxamide] |
| 9.00 | < 5.00 | 7.80 | 8.10 | 5.31 | O=C(NO)C1(S(=O)(=O)c2ccc(OCCCSc3nc4ccccc4o3)cc2)CCOCC1 [Example 33, 4-[[4-[3-(2-benzoxazolylthio)propoxy]phenyl]sulfonyl]tetrahydro-N-N-hydroxy-2H-pyran-4-carboxamide] |
| 8.52 | 6.37 | 7.44 | < 5.00 | < 5.00 | O=C(OCCCCOc1ccc(S(=O)(=O)C2(C(=O)NO)CCOCC2)cc1)N1CCc2ccccc2C1 [Example 34] |
| 8.52 | < 5.00 | 6.22 | < 5.00 | < 5.00 | O=C1c2ccccc2C(=O)N1CCCCc1ccc(S(=O)(=O)C2(C(=O)NO)CCOCC2)cc1 [Example 35] |

Reference: patent publication US20040024024A1, “Aromatic sulfone hydroxamates and their use as protease inhibitors” (priority 2001, published 2004)
